In patent publication US7812025B2, “Brain/neuronal cell-protecting agent and therapeutic agent for sleep disorder” (Takeda Pharmaceutical Company Limited, priority 2005, dated 2010) one finds inhibition data, which are given here for 15 compounds.

Each structure is given as a SMILES string.

In the experiment the target is T1, Human FAAH (Homo sapiens, UniProt O00519).
T1 construct: made in house; 10000 g pellet suspended in M-PER
T1 sequence (O00519 1-579): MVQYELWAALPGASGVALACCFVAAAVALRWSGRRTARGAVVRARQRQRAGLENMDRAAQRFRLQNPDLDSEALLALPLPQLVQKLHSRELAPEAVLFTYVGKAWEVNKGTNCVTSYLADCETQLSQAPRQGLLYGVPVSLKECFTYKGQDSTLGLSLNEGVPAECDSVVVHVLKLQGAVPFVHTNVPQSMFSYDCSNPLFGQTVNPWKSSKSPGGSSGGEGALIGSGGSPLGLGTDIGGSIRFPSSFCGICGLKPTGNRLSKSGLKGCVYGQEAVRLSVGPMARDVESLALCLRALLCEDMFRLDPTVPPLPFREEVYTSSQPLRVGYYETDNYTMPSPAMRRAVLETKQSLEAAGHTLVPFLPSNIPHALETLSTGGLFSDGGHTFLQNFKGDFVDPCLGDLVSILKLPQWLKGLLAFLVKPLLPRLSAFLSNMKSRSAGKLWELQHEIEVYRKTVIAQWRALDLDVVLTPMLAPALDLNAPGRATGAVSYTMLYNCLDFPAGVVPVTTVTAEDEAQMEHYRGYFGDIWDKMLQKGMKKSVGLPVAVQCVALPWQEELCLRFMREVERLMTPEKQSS
The experiment can be described thus: Measurement of FAAH inhibitory activity (enzyme fraction from CHO-K1/human FAAH, substrate anandamide [ethanolamine 1-3H]). In kind it is biochemical. Particulars: 1 μM test compound; 25 nM anandamide [ethanolamine 1-3H]; 60 ng enzyme fraction; 37° C. for 30 minutes; pH 9.0; read-out: Human FAAH Inhibition Rate at 1 μM (%). As for the experimental part: Measurement of FAAH Inhibitory Activity
(1) Preparation of Enzyme Fraction
The FAAH gene was cloned by PCR. That is, a human brain library was used as a cDNA library, 5′-[…]-3′ [SEQ ID NO:1] and 5′-[…]-3′ [SEQ ID NO:2] were used as a primer set, and KOD DNA polymerase (Toyobo Co., Ltd.) was used as a DNA polymerase. One cycle of the reaction comprises 95° C. for 30 sec, 55° C. for 30 sec and 72° C. for 2 min, and 45 cycles of the reaction was carried out to obtain an amplified fragment. The amplified fragment was cleaved with restriction enzymes EcoRI and SalI, and then was inserted into a pMSRα vector which had been cleaved with the same restriction enzymes EcoRI and SalI to obtain a pMSRα-human FAAH. A cell line CHO-K1 and the above-obtained plasmid were subjected to a method known per se to prepare the cell line CHO-K1/human FAAH in which human FAAH was stably expressed. The CHO-K1/human FAAH was cultured in a CO2 incubator at 37° C., using a medium (Ham's F-12 medium supplemented with final concentration 10% of fetal bovine serum (FBS) and final concentration 800 μg/ml of G418), and then the cells were harvested. After washing with PBS, the cells were suspended in a buffer (10 mM Tris, 1 mM EDTA and 10 mM MgCl2, all at final concentrations) and disrupted with a Polytron homogenizer. After centrifugation at 900 g, the supernatant was recovered and further centrifuged at 10000 g. A pellet obtained therefrom was suspended in M-PER (Catalog No. 78501; PIERCE) to give an enzyme fraction.
Using a white walled 96-well plate (Coster Corp.), the test compound at various concentrations, 60 ng of the enzyme fraction and the substrate anandamide [ethanolamine 1-^3H] (final concentration 25 nM) were reacted in 50 μl of a reaction buffer (125 mM Tris-HCl (pH 9.0), 1 mM EDTA, 0.4 mM HEPES, 0.2% glycerol and 0.02% Triton X-100, all at final concentrations) at 37° C. for 30 minutes. The reaction mixture was transferred to a 96-well MultiScreen-HA filter plate (Millipore Corp.) and then was left to stand overnight at room temperature in order to allow the unreacted substrate to be adsorbed on the filter. The plate was washed with PBS using a MultiScreen Vacuum Manifold (Millipore Corp.) and dried. To each well, 50 μl of liquid scintillation cocktail was added and stirred, and then counting was performed with a TopCount (Perkin-Elmer Corp.). The count of a sample containing a solvent instead of the test compound was taken as 0%, and the count at zero time was taken as 100%, to calculate the inhibitory activity of the compound.

Consider `CC(=O)Nc1ccc(NC(=O)N2CCN(c3cccc(-c4ccccc4)c3)CC2)cn1` [Example 3, N-[6-(Acetylamino)pyridin-3-yl]-4-biphenyl-3-ylpiperazine-1-carboxamide], for which the inhibition at 1 µM is 101%.

Turning to `Cc1noc(NC(=O)N2CCN(c3cccc(-c4ccsc4)c3)CC2)c1C` [Example 11, N-(3,4-Dimethylisoxazol-5-yl)-4-[3-(3-thienyl)phenyl]piperazine-1-carboxamide], the inhibition at 1 µM came out at 100%.

For the compound `O=C(Nc1cccnn1)N1CCN(c2cc(-c3ccccc3)ccn2)CC1` [Example 6, 4-(4-Phenylpyridin-2-yl)-N-pyridazin-3-ylpiperazine-1-carboxamide], the inhibition at 1 µM is 91%.

On to `O=C(Nc1cccnc1)N1CCN(c2cccc(-c3ccoc3)c2)CC1` [Example 13, 4-[3-(3-Furyl)phenyl]-N-pyridin-3-ylpiperazine-1-carboxamide], for which the inhibition at 1 µM amounted to 104%.

As to `Cc1noc(NC(=O)N2CCN(c3ccc(-c4ccccc4)cc3)CC2)c1C` [Example 15, 4-Biphenyl-4-yl-N-(3,4-dimethylisoxazol-5-yl)piperazine-1-carboxamide], the inhibition at 1 µM turned out to be 102%.

As for `O=C(Nc1cccnc1)N1CCN(c2cccc(-c3ccsc3)c2)CC1` [Example 12, N-Pyridin-3-yl-4-[3-(3-thienyl)phenyl]piperazine-1-carboxamide], the inhibition at 1 µM was found to be 104%.

On to `O=C(Nc1cccnc1)N1CCN(c2cc(-c3ccccc3)ccn2)CC1` [Example 4, 4-(4-Phenylpyridin-2-yl)-N-pyridin-3-ylpiperazine-1-carboxamide], for which the inhibition at 1 µM was determined as 74%.

In the case of `Cc1noc(NC(=O)N2CCN(c3cc(-c4ccccc4)ccn3)CC2)c1C` [Example 5, N-(3,4-Dimethylisoxazol-5-yl)-4-(4-phenylpyridin-2-yl)piperazine-1-carboxamide], the inhibition at 1 µM was 94%.

As to `O=C(Nc1cccnc1)N1CCN(c2ccc(-c3ccccc3)cc2)CC1` [Example 14, 4-Biphenyl-4-yl-N-pyridin-3-ylpiperazine-1-carboxamide], the inhibition at 1 µM turned out to be 101%.

With `O=C(Nc1cccnc1)N1CCN(c2ccc(-c3ccccc3)cn2)CC1` [Example 8, 4-(5-Phenylpyridin-2-yl)-N-pyridin-3-ylpiperazine-1-carboxamide], the inhibition at 1 µM turned out to be 98%.

For `CC(=O)Nc1ccc(NC(=O)N2CCN(c3cccc(-c4ccsc4)c3)CC2)cc1` [Example 10, N-[4-(Acetylamino)phenyl]-4-[3-(3-thienyl)phenyl]piperazine-1-carboxamide], the inhibition at 1 µM is 108%.

In the case of `Cc1noc(NC(=O)N2CCN(c3ccc(-c4ccccc4)cn3)CC2)c1C` [Example 7, N-(3,4-Dimethylisoxazol-5-yl)-4-(5-phenylpyridin-2-yl)piperazine-1-carboxamide], the inhibition at 1 µM worked out at 102%.

In the case of `Cc1noc(NC(=O)N2CCN(c3cccc(-c4ccccc4)c3)CC2)c1C` [Example 2, 4-Biphenyl-3-yl-N-(3,4-dimethylisoxazol-5-yl)piperazine-1-carboxamide], the inhibition at 1 µM was 104%.

With `O=C(Nc1cccnc1)N1CCN(c2cccc(-c3ccccc3)c2)CC1` [Example 1, 4-Biphenyl-3-yl-N-pyridin-3-ylpiperazine-1-carboxamide], the inhibition at 1 µM was 103%.

As for `O=C(Nc1cccnn1)N1CCN(c2cccc(-c3ccccc3)c2)CC1` [Example 9, 4-Biphenyl-3-yl-N-pyridazin-3-ylpiperazine-1-carboxamide], the inhibition at 1 µM was 105%.
